Measurements published in US20100160217A1 (priority 2005, published 2010).

Key:
[1] = test system: UNC-49/GABAA receptors; assay: Electrophysiology: GABA-induced current in wild type and unc-74 animals; format: cell-based, C. elegans; settings: unc-74 mutant animals
[2] = test system: C. elegans; assay: Aldicarb resistance assay (paralysis on drug plates); format: in vivo; settings: unc-74 animals (data not shown)
Procedure: (§1) Pharmacological resistance assays. Plates were equilibrated to room temperature, weighed, and equal volumes of different concentrations of levamisole or aldicarb were added to make plates containing specific concentrations of drug. Once plates dried, they were seeded with a drop of OP50 and incubated overnight at room temperature. A minimum of 15 young adult animals (levamisole) or L4 animals (aldicarb) were placed on drug plates and maintained for two (levamisole) or eight (aldicarb) hours. The percentage of animals on each plate that were paralyzed in response to mild stimulation was determined. Data presented represents the mean +/− SEM of n=number of plates.

[3] = test system: levamisole sensitive nAChR
Procedure: (§2) Electrophysiology was performed as previously described (Richmond and Jorgensen, 1999a).
(§3) To directly examine levamisole sensitive nAChR function, electrophysiological analysis was performed on wild type and unc-74 mutant animals (FIG. 2). Intact body wall muscles of dissected animals were voltage clamped and the amount of current elicited in response to levamisole was measured.

[4] = test system: C. elegans
Procedure: as §1

[5] = test system: nAChRs; settings: unc-74 animals; reduction not greater than in unc-38 mutants
Procedure: as §2, §3

Question: With `NCCCC(=O)O` [GABA] as the molecule, how does the “GABA induced currents compared with wild type” value [1] read?
Answer: equivalent

Question: How did the resistance to aldicarb [2] turn out when `CNC(=O)O/N=C/C(C)(C)SC` [aldicarb] was run?
Answer: only partially resistant

Question: With `c1ccc([C@H]2CN3CCSC3=N2)cc1` [levamisole] as the molecule, how does the “inward current elicited by focal pulses of levamisole” value [3] read?
Answer: around 200 pA

Question: And the levamisole induced current ([3]; unc-74 mutants, voltage clamped muscle cells)?
Answer: completely abolished

Question: What about the “resistance to levamisole (paralysis)” value ([4]; unc-74 mutant animals, all concentrations tested, FIG. 1(B)) of the same molecule?
Answer: completely resistant

Question: And the response to levamisole ([4]; unc-74 mutants, concentrations that completely paralyze wild type)?
Answer: no response

Question: And the “concentration of levamisole at which animals become paralyzed” value ([4]; wild type animals, levamisole resistance curves, FIG. 1(B))?
Answer: ~0.15 mM

Question: And the “time to hypercontraction and complete paralysis” value ([4]; wild type animals, solid media, millimolar concentrations of levamisole (0.2 mM), FIG. 1(A))?
Answer: ~2 h

Question: With `CN1CCCC1c1cccnc1` (stereo not drawn) [nicotine] as the molecule, how does the “amplitude of nicotine current relative to wild type” value [5] read?
Answer: reduced
